US9649392B2, “Central nervous system labelling composition for intranasal administration and labelling method and screening method using central nervous system labelling composition for intranasal administration” (CANON KABUSHIKI KAISHA, priority 2009, dated 2017)

Tested on: central nervous system of the zebrafish
Test: dyeing of the central nervous system of juvenile zebrafish after exposure to dye solution, fluorescence/confocal microscope observation over time
Format: in vivo
Settings: 7 dpf juvenile zebrafish; for dyeing of nerve cells of the central nervous system: confocal microscope; for dyed state of the central nervous system (transfer of dyeability with time from nasal cavity via olfactory bulb): left 1 hour, washed, observed at time intervals
Experimental: Distilled water was added to a 1 mg/mL DMSO solution of compound 1 (as expressed by the formula (5) above) to obtain a dye solution 1 containing the compound 1 to a concentration of 200 ng/mL. 1 mL of the dye solution 1 and a 7-day-old (7 dpf) juvenile fish of zebrafish were put into an arbitrarily selected well of a 24-hole multi plate (available from IWAKI) and left there for an hour. Thereafter, the dye solution 1 in the well was removed and an operation of replacing it with 1 mL of distilled water was repeated three times in ten minutes. The elapsed time after the last solution replacing operation was measured and the juvenile fish was taken out from the well when a predetermined time period had elapsed. The juvenile fish was buried in 5% low melting-point agarose gel on a glass slide to restrict any movement and the dyed state of the central nervous system of the zebrafish was observed from a lateral side and the vertex by using fluorescent microscope (MZ16FA: available from Leica). The central nervous system was observed by means of a confocal microscope (Pascal Exciter: available from Zeiss). After the observation, the zebrafish was returned into the well and repeatedly observed thereafter at regular time intervals. […]

CCN1/C(=C\C=C\C2=[N+](CC)c3ccccc3C23CCCCC3)C2(CCCCC2)c2ccccc21 [compound 1]
dyeing of nerve cells of the central nervous system (dye solution 200 ng/mL): nerve cells of the central nervous system were also dyed
dyed state of the central nervous system (transfer of dyeability with time from nasal cavity via olfactory bulb) (dye solution 200 ng/mL): firstly the nasal cavity, then the olfactory bulb and finally the central nervous system were sequentially dyed

CC/N=c1\cc2oc3cc(NCC)c(C)cc3c(-c3ccccc3C(=O)OCC)c-2cc1C [compound 2]
dyeing of nerve cells of the central nervous system (dye solution 500 ng/mL): nerve cells of the central nervous system were also dyed
dyed state of the central nervous system (transfer of dyeability with time from nasal cavity via olfactory bulb) (dye solution 500 ng/mL): firstly the nasal cavity, then the olfactory bulb and finally the central nervous system were sequentially dyed

CCN1c2ccc(/C=C/C3=[N+](CC)c4ccc(OC)cc4C34CCCCC4)cc2C2CCCC21 (stereo not drawn) [compound 3]
dyeing of nerve cells of the central nervous system (dye solution 500 ng/mL): nerve cells of the central nervous system were also dyed
dyed state of the central nervous system (transfer of dyeability with time from nasal cavity via olfactory bulb) (dye solution 500 ng/mL): firstly the nasal cavity, then the olfactory bulb and finally the central nervous system were sequentially dyed
